We go through nine compounds from ChEMBL document CHEMBL1201862, “PubChem BioAssay data set” (2004).

By GI50 is commonly meant the concentration at which growth is held to half of that of the control.

Some test systems named below: SK-MEL-2; CAKI-1; NCI-H460; TK-10; SR; KM12; OVCAR-3; ACHN; NCI-H23; UACC-257; HOP-92; RPMI-8226; SF-268; EKVX; UO-31; SK-OV-3; MOLT-4; SN12C; HOP-62; Malme-3M.
Assay in all cases: DTP human tumour cell line panel, 48 h

SMILES strings stand for the structures.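 In this assay, cells in 96-well plates receive the compound at five concentrations for 48 hours. Endpoints are linearly interpolated between the surrounding concentrations. Here, GI50 denotes the concentration required for 50% inhibition of growth.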 Activity calls are given as the source filed them. No stated cut-off is given here; in the data, active = GI50 up to about 1.1 µM and inactive = higher.

Turning to `NC(=O)OCC(COc1ccc(Cl)cc1)OC(=O)c1cc([N+](=O)[O-])cc([N+](=O)[O-])c1` (stereo not given), the GI50 is 71.6 µM (inactive) with SK-MEL-2; > 100 µM (inactive) in the assay on CAKI-1; 40.6 µM (inactive) in the assay on NCI-H460; > 100 µM (inactive) in the assay on TK-10; > 100 µM (inactive) in the assay with SR; > 100 µM (inactive) in the assay with KM12. Moreover, the GI50 with OVCAR-3, in the assay on ACHN, in the assay on NCI-H23, with UACC-257, in the assay with HOP-92 and in the assay on RPMI-8226 was > 100 µM (inactive) in each case. The GI50 with SF-268, with EKVX, with UO-31, with SK-OV-3, in the assay with MOLT-4 and in the assay with SN12C was > 100 µM (inactive) each time. Further, the GI50 with HOP-62 and with Malme-3M was > 100 µM (inactive) in each case.
On to `N=c1n(C(=O)N2CCCC2)c2cc(Cl)ccc2n1C1=NCCN1`, for which the GI50 in the assay on SK-MEL-2 is 33.1 µM (inactive); in the assay on CAKI-1, 43.2 µM (inactive); with NCI-H460 it was > 100 µM (inactive); in the assay on TK-10, 86.5 µM (inactive); in the assay on SR, 38.2 µM (inactive); with KM12, > 100 µM (inactive). Also, the GI50 is 80.5 µM (inactive) in the assay on OVCAR-3; 43.7 µM (inactive) in the assay on ACHN; > 100 µM (inactive) in the assay on UACC-257; 15.2 µM (inactive) with HOP-92; 15.7 µM (inactive) in the assay on RPMI-8226; > 100 µM (inactive) in the assay on SF-268. The GI50 in the assay on EKVX was > 100 µM (inactive); in the assay with SK-OV-3, > 100 µM (inactive); in the assay on MOLT-4 it was 41.7 µM (inactive); in the assay with SN12C, 70.5 µM (inactive); in the assay on HOP-62, > 100 µM (inactive); in the assay on Malme-3M it was 99.8 µM (inactive).
As to `C#CCN(Cc1ccc2nc(-c3ccccc3)c(Cl)nc2c1)c1ccc(F)cc1`, the GI50 with SK-MEL-2 was > 100 µM (inactive); with CAKI-1, > 100 µM (inactive); in the assay on NCI-H460, > 100 µM (inactive); in the assay with TK-10, > 100 µM (inactive); in the assay on SR it was 45.8 µM (inactive); in the assay with KM12 it was > 100 µM (inactive). The GI50 in the assay with OVCAR-3 is > 100 µM (inactive); in the assay on ACHN, 71.9 µM (inactive); in the assay with NCI-H23, 71.6 µM (inactive); in the assay with UACC-257, > 100 µM (inactive); with HOP-92, 47 µM (inactive); with RPMI-8226, 39.7 µM (inactive). For the same compound, the GI50 is > 100 µM (inactive) in the assay with SF-268; > 100 µM (inactive) in the assay on EKVX; 80.7 µM (inactive) in the assay with UO-31; 0.767 µM (active) in the assay with MOLT-4; > 100 µM (inactive) in the assay on SN12C; > 100 µM (inactive) in the assay on HOP-62. In the assay with Malme-3M, the GI50 was > 100 µM (inactive).
As to `Brc1cc(CCOC2CCCCO2)c(-c2sccc2CCOC2CCCCO2)s1` (stereo not given), the GI50 in the assay with SK-MEL-2 was 27.4 µM (inactive); with CAKI-1 it was > 91.4 µM (inactive); in the assay with NCI-H460 it was 33.4 µM (inactive); in the assay with TK-10, > 59.6 µM (inactive); in the assay with SR, 9.75 µM (inactive); in the assay on KM12, 27 µM (inactive). The GI50 in the assay with OVCAR-3 is 71.4 µM (inactive); with ACHN, 50.8 µM (inactive); in the assay on NCI-H23, 34.7 µM (inactive); with UACC-257, 35.5 µM (inactive); in the assay on HOP-92 it was > 65.2 µM (inactive); with RPMI-8226, 23.9 µM (inactive). The GI50 in the assay with SF-268 was 53.6 µM (inactive); in the assay with EKVX, 47.6 µM (inactive); with UO-31, 14 µM (inactive); with SK-OV-3, > 69.2 µM (inactive); in the assay on MOLT-4, 22.2 µM (inactive); in the assay on SN12C, > 100 µM (inactive). Further, the GI50 with HOP-62 is 63.2 µM (inactive); in the assay with Malme-3M it was 24.9 µM (inactive).
For the compound `CCc1ncc(C(C)(O)c2ccccc2)n1Cc1ccccc1` (stereo not given), the GI50 in the assay with SK-MEL-2 was 70.8 µM (inactive); in the assay with CAKI-1, 35.4 µM (inactive); with NCI-H460, 54.7 µM (inactive); in the assay with TK-10, 33.5 µM (inactive); in the assay on SR, 14.8 µM (inactive); in the assay with KM12, 31 µM (inactive). In addition, the GI50 is 40.6 µM (inactive) in the assay with OVCAR-3; 82.2 µM (inactive) with ACHN; 5.56 µM (inactive) in the assay with NCI-H23; 29.4 µM (inactive) in the assay on UACC-257; 67.3 µM (inactive) in the assay with HOP-92; 32.3 µM (inactive) in the assay with RPMI-8226. Besides, the GI50 in the assay with SF-268 is 99.8 µM (inactive); in the assay on EKVX, 56.2 µM (inactive); in the assay with UO-31, 55.1 µM (inactive); with SK-OV-3 it was 67.6 µM (inactive); in the assay on MOLT-4, 22.5 µM (inactive); in the assay on SN12C it was 21.7 µM (inactive). The 50% growth inhibitory concentration (GI50) with HOP-62 was < 0.01 µM (active); in the assay on Malme-3M, 41 µM (inactive).
With `Cn1c(=O)c(Cl)c(N=[N+]=[N-])c2ccccc21`, the GI50 in the assay with SK-MEL-2 was > 100 µM (inactive); in the assay with CAKI-1 it was 78.7 µM (inactive); in the assay on NCI-H460 it was > 100 µM (inactive); in the assay with TK-10, > 100 µM (inactive); in the assay with SR, 58.5 µM (inactive); with KM12, 0.0324 µM (active). For the same compound, the GI50 is 33.3 µM (inactive) in the assay on OVCAR-3; 85.7 µM (inactive) in the assay on ACHN; > 100 µM (inactive) in the assay with NCI-H23; > 100 µM (inactive) with UACC-257; 84.1 µM (inactive) in the assay on HOP-92; > 100 µM (inactive) with SF-268. Moreover, the GI50 with EKVX is 22.1 µM (inactive); with UO-31, > 100 µM (inactive); with SK-OV-3, > 100 µM (inactive); in the assay on MOLT-4, 23.3 µM (inactive); in the assay on SN12C, 56.5 µM (inactive); with HOP-62 it was > 100 µM (inactive). Also, the GI50 in the assay on Malme-3M is 68.9 µM (inactive).
Regarding `CC1=CC(=O)CC2(C)CCC(C(C)CC(=O)CC(C)C)CC12` (stereo not given), the GI50 is 78.9 µM (inactive) in the assay with SK-MEL-2; 16.4 µM (inactive) in the assay with CAKI-1; 32.4 µM (inactive) in the assay on NCI-H460; > 100 µM (inactive) with TK-10; 20 µM (inactive) in the assay with SR; 19 µM (inactive) in the assay on KM12. In addition, the GI50 is 17.4 µM (inactive) in the assay with ACHN; 35.4 µM (inactive) with NCI-H23; 23.9 µM (inactive) in the assay on UACC-257; 31.4 µM (inactive) with HOP-92; 20.2 µM (inactive) in the assay on RPMI-8226; 55.8 µM (inactive) in the assay with SF-268. For the same compound, the GI50 in the assay with EKVX was 48.9 µM (inactive); in the assay on UO-31 it was 31.2 µM (inactive); with MOLT-4 it was 18.3 µM (inactive); with SN12C, 17.7 µM (inactive); with Malme-3M, 24.9 µM (inactive).
Turning to `CC(C)C1=C(O)C(=O)C2=C(C1=O)C(OC=O)C(O)C1C(C)(C)CCCC21C` (stereo not given), the GI50 was 12.1 µM (inactive) with SK-MEL-2; 4.04 µM (inactive) with CAKI-1; 3.22 µM (inactive) in the assay with NCI-H460; 13.4 µM (inactive) in the assay with TK-10; 3 µM (inactive) in the assay on SR; 12 µM (inactive) with KM12. The GI50 with OVCAR-3 was 12.1 µM (inactive); in the assay on ACHN it was 3.87 µM (inactive); in the assay with NCI-H23, 7 µM (inactive); in the assay with UACC-257, 9.1 µM (inactive); with HOP-92, 7.46 µM (inactive); with RPMI-8226, 2.66 µM (inactive). Besides, the GI50 is 10.5 µM (inactive) in the assay on SF-268; 10.1 µM (inactive) in the assay with EKVX; 5.82 µM (inactive) in the assay on UO-31; 13.4 µM (inactive) with SK-OV-3; 2.25 µM (inactive) in the assay on MOLT-4; 10.1 µM (inactive) with SN12C. In addition, the GI50 in the assay on HOP-62 was 37.6 µM (inactive); with Malme-3M it was 7.08 µM (inactive).
In the case of `C=C(C)C1Cc2c(cc(O)c3c(=O)c4ccccc4n(C)c23)O1` (stereo not given), the GI50 in the assay with SK-MEL-2 is 34.8 µM (inactive); in the assay with CAKI-1, 20.7 µM (inactive); in the assay on NCI-H460, 43.5 µM (inactive); in the assay with TK-10, 17.5 µM (inactive); in the assay on SR, 29.9 µM (inactive); in the assay on KM12, > 100 µM (inactive). Also, the GI50 in the assay with ACHN is 40.9 µM (inactive); in the assay on NCI-H23 it was 32.2 µM (inactive); with UACC-257, > 100 µM (inactive); in the assay on HOP-92 it was 20.6 µM (inactive); with RPMI-8226, > 100 µM (inactive); in the assay with SF-268 it was 21.5 µM (inactive). In addition, the GI50 was 25.5 µM (inactive) in the assay with SK-OV-3; > 100 µM (inactive) with MOLT-4; 43.1 µM (inactive) with SN12C; 14.2 µM (inactive) in the assay on HOP-62; 64.4 µM (inactive) in the assay on Malme-3M.
